Results published in US5045566A, “Novel imidate insecticides” (ICI Americas Inc., priority 1989, dated 1991).

Assays:
Type in all cases: in vivo
[1] = system: Cabbage Looper [Trichoplusia ni (Hubner)]; experiment: Cabbage looper leaf dip (CL), 3-5 days; details: percent in solution, second-instar larvae
Method in brief: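 Squash cotyledons dipped in test solution (acetone-water 50-50, ≤0.1%), dried, offered to 5 second-instar larvae; mortality after 3-5 days gives LC50.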

[2] = system: Black Bean Aphid [Aphis fabae (Scop.)]; experiment: Black bean aphid spray test on nasturtium (BBA), 48 hours; details: percent of test compound in sprayed solution
Method in brief: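 LC50, given as percent test compound in the sprayed liquid, was calculated from dosage-mortality curves using concentrations from 0.05% downward. Sprays in 50:50 acetone-water went to runoff on ~5 cm nasturtiums carrying 25-50 aphids of mixed ages, one day after infestation. Deaths were counted 48 h later under greenhouse conditions.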

[3] = system: Housefly [Musca domestica]; experiment: Housefly contact mortality in dishes (HF), 48 hours; details: μg of test compound per 25 female flies
Method in brief: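 LC50, as μg compound per 25 female flies, comes from dosage-mortality curves with doses from 100 μg downward. Residues were made by evaporating acetone plus 0.01% peanut oil in dishes, onto which 1-2-day-old females were caged; deaths were counted after 48 hours.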

[4] = system: Tobacco Budworm [Heliothis virescens (Fabricius)] eggs; experiment: Tobacco budworm eggs (TBW-E); details: percent in solution; 2-day old eggs
Method in brief: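 Step 1: dip 2-day old egg patches in acetone test solutions (top concentration 0.1%). Step 2: hold in dishes with rearing medium at 78° F. Step 3: record mortality after control hatch and feeding.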

[5] = system: Tobacco Budworm [Heliothis virescens (Fabricius)] larvae; experiment: Tobacco budworm larvae, contact (TBW-C), 5 days; details: percent in solution, second-instar larvae
Method: The compounds in Tables 1 and 2 above were tested for insecticidal activity using the following testing procedures. LC50 values, based on the results of these tests and calculated according to dosage-mortality curves, are expressed in Table 3.
Tobacco Budworm [Heliothis virescens (Fabricius)]:
(a) Contact: Test compounds were diluted in a 50-50 acetone-water solution. Cotton (Gossypium sp.) cotyledons were immersed in the test solutions for 2-3 seconds and placed on a wire screen to dry. The dried leaves were placed in petri dishes containing a moistened piece of filter paper and infested with 5 second-instar tobacco budworm larvae. The dishes were placed in a high humidity chamber for 5 days, and percent mortality of the larvae recorded. Test concentrations ranged from 0.1% downward. The LC-50 values are expressed below in Table 3 under the heading "TBW-C" in terms of percent of the test compound in the solution.

[6] = system: Aster Leafhopper [Macrosteles fascifrens (Stal)]; experiment: Aster leafhopper on dipped oat seedlings (LH), 48 hours; details: percent in solution, adults/nymphs
Method in brief: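 LC50 values, given as percent of test compound in the dip solution, were derived from dosage-mortality curves over concentrations from 0.05% downward. Mortality was counted 48 hours after ten leafhopper adults/nymphs were enclosed on treated seedlings. The seedlings were oats, about 10 cm tall, briefly dipped in 50-50 acetone-water.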

[7] = system: Maize weevil [Sitophilus zeamais (Motschulsky)]; experiment: Maize weevil on dipped corn seeds (MW), 48 hours; details: percent in solution, adult weevils
Method in brief: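 LC50, given as percent of compound in dipping solution, comes from dosage-mortality curves over concentrations descending from 0.01%. Four corn seeds soaked 2-3 s in 50:50 acetone:water solution were dried and held with 10 adult weevils, about 25° C, mortality read after 48 h.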

SMILES | LC50 CL [1] | LC50 BBA [2] | LC50 HF [3] | LC50 TBW E (eggs) [4] | LC50 TBW C (contact) [5] | LC50 LH [6] | LC50 MW [7]
ClC(Cl)C(=Nc1ccccc1)OCc1cccc(Oc2ccccc2)c1 [Compound 41] | 0.015% | 0.001% | 4.5 µg | 0.04% | 0.0035% | – | –
Fc1ccc(N=C(OCc2cccc(Oc3ccccc3)c2)C(Cl)Cl)cc1 [Compound 44] | – | 0.0006% | 3 µg | 0.06% | < 0.1% | – | –
Cc1c(F)cccc1N=C(OCc1cccc(Oc2ccccc2)c1)C(C)C [Compound 73] | 0.004% | 0.003% | 25 µg | 0.025% | 0.005% | – | –
Cc1ccc(F)cc1N=C(OCc1cccc(Oc2ccccc2)c1)C(C)C [Compound 74] | 0.005% | 0.001% | 25 µg | 0.025% | 0.0025% | – | –
COc1ccc(N=C(OCc2cccc(Oc3ccccc3)c2)C(C)C)cc1Cl [Compound 95] | 0.0025% | 0.001% | 10 µg | 0.025% | 0.004% | – | –
Cc1cc(Cl)ccc1N=C(OCc1cccc(Oc2ccccc2)c1)C(C)C [Compound 96] | 0.003% | 0.002% | 35 µg | 0.025% | 0.0025% | – | –
CC(C)(C)c1ccc(N=C(OCc2cccc(Oc3ccccc3)c2)C(Cl)Cl)cc1 [Compound 140] | < 0.1% | 0.05% | > 100 µg | > 0.1% | > 0.1% | – | –
COc1ccc(N=C(OCc2cccc(Oc3ccccc3)c2)C(C)C)c(OC)c1 [Compound 146] | 0.017% | 0.05% | 40 µg | > 0.1% | 0.025% | – | –
CC(=O)c1ccc(N=C(OCc2cccc(Oc3ccccc3)c2)C(C)C)cc1 [Compound 147] | 0.01% | 0.03% | 10 µg | > 0.1% | 0.0075% | – | –
CC(C)C(=Nc1cccc(C(F)(F)F)c1)OCc1ccc(F)c(Oc2ccc(Cl)cc2)c1 [Compound 266] | 0.00016% | > 0.05% | 10 µg | 0.06% | 0.0007% | – | –
Cc1c(COC(=Nc2ccc(C(C)(C)C)cc2)C(C)C)cccc1-c1ccccc1 [Compound 536] | < 0.1% | < 0.05% | > 100 µg | > 0.1% | – | > 0.05% | > 0.01%
CC(C)C(=Nc1ccc(F)c(Cl)c1)OCc1cccc(Cc2ccccc2)c1 [Compound 537] | > 0.1% | > 0.05% | 20 µg | > 0.1% | – | > 0.05% | > 0.01%
CC(C)C(=Nc1ccc([N+](=O)[O-])cc1)OCc1coc(Cc2ccccc2)c1 [Compound 539] | > 0.1% | > 0.05% | 22 µg | > 0.1% | – | > 0.05% | > 0.01%
CC(C)C(=Nc1ccc2c(c1)OCO2)OCc1ccnc(Oc2ccccc2)c1 [Compound 540] | < 0.1% | > 0.05% | > 100 µg | > 0.1% | – | > 0.05% | > 0.01%
CC(C)C(=Nc1ccc(F)c(Cl)c1)OCc1cccc(Cc2ccccc2)c1 [Compound 541] | 0.001% | 0.004% | < 100 µg | > 0.1% | – | > 0.05% | > 0.01%
CC(C)C(=Nc1ccc(OC(F)(F)F)cc1)OCc1cccc(Cc2ccccc2)c1 [Compound 542] | > 0.01% | > 0.05% | > 100 µg | > 0.1% | – | > 0.05% | > 0.01%
CC(C)C(=Nc1ccc(C(F)(F)F)cc1)OCc1cccc(Cc2ccccc2)c1 [Compound 543] | 0.0008% | 0.003% | < 100 µg | > 0.1% | – | < 0.05% | > 0.01%
COCc1c(F)c(F)c(COC(=Nc2ccc(C(C)(C)C)cc2)C(C)C)c(F)c1F [Compound 544] | > 0.1% | 0.005% | > 100 µg | > 0.1% | – | > 0.05% | > 0.01%
Cc1cccc(N=C(OCc2cccc(Oc3ccc(Cl)cc3)n2)C(C)C)c1 [Compound 545] | > 0.1% | 0.005% | < 100 µg | > 0.1% | – | > 0.05% | > 0.01%
C#CCc1c(F)c(F)c(COC(=Nc2cccc(C(F)(F)F)c2)C(C)C)c(F)c1F [Compound 546] | 0.0001% | 0.001% | < 100 µg | > 0.1% | – | < 0.05% | 0.0032%
C#CCc1c(F)c(F)c(COC(=Nc2ccc3c(c2)OCO3)C(C)C)c(F)c1F [Compound 547] | 0.0005% | 0.0006% | < 100 µg | 0.05% | – | < 0.05% | > 0.01%
CC(C)C(=Nc1cccc(C(F)(F)F)c1)OCC#CCOc1ccccc1 [Compound 548] | < 0.1% | > 0.05% | > 100 µg | > 0.1% | – | > 0.05% | > 0.01%
CC(C)C(=Nc1ccc(F)c(Cl)c1)OCc1cccc(Oc2ccccn2)c1 [Compound 549] | > 0.1% | > 0.05% | < 100 µg | > 0.1% | – | > 0.05% | > 0.01%
